Patent US6894045B2, “Tetrahydropurinones and derivatives thereof as corticotropin releasing factor receptor ligands” (Bristol-Myers Squibb Pharma Company, priority 2001, dated 2005)

| Compound | melting point [°C] |
| --- | --- |
| CCc1nc2c(n1C(CC)CC)C(=O)N(C)CN2c1ccc(Cl)cc1Cl [Example 1, 3-(2,4-dichlorophenyl)-8-ethyl-1-methyl-7-(3-pentyl)-1,2,3,7-tetrahydro-6H-purin-6-one] | 132 to 133 |
| CCCC(CCC)n1c(CC)nc2c1C(=O)N(C)CN2c1ccc(Cl)cc1Cl [Example 2, 3-(2,4-dichlorophenyl)-8-ethyl-7-(4-heptyl)-1-methyl-1,2,3,7-tetrahydro-6H-purin-6-one] | 117 to 118 |
| CCc1nc2c(n1Cc1ccc(-c3ccccc3)cc1)C(=O)N(C)CN2c1ccc(Cl)cc1Cl [Example 21, 7-([1,1′-biphenyl]-4-ylmethyl)-3-(2,4-dichlorophenyl)-8-ethyl-1-methyl-1,2,3,7-tetrahydro-6H-purin-6-one] | 216 to 217 |
| CCCCC(CC)n1c(CC)nc2c1C(=O)N(C)CN2c1ccc(Cl)cc1Cl (stereo not shown) [Example 49, 3-(2,4-dichlorophenyl)-8-ethyl-7-(3-heptyl)-1-methyl-1,2,3,7-tetrahydro-6H-purin-6-one] | 94 to 95 |

The next lines start with the values.

| melting point [°C] | Compound |
| --- | --- |
| 135 to 136.5 | CCc1nc2c(n1C(CC)CC)C(=O)N(C)C(C)N2c1ccc(Cl)cc1Cl (stereo not shown) [Example 3, 3-(2,4-dichlorophenyl)-1,2-dimethyl-8-ethyl-7-(3-pentyl)-1,2,3,7-tetrahydro-6H-purin-6-one] |
| 144 to 145.5 | CCCC(CCC)n1c(CC)nc2c1C(=O)N(C)C(C)N2c1ccc(Cl)cc1Cl (stereo not shown) [Example 5, 3-(2,4-dichlorophenyl)-1,2-dimethyl-8-ethyl-7-(4-heptyl)-1,2,3,7-tetrahydro-6H-purin-6-one] |
| 116.5 to 117.5 | CCCC(CCC)n1c(CC)nc2c1C(=O)N(C)C(CC)N2c1ccc(Cl)cc1Cl (stereo not shown) [Example 6, 3-(2,4-dichlorophenyl)-2,8-diethyl-7-(4-heptyl)-1-methyl-1,2,3,7-tetrahydro-6H-purin-6-one] |
